Reference: patent US8421457B2, “Methods and systems for magnetically resonating both a subject and a substance administered to the subject” (Applied Magnetics, LLC, priority 2008, dated 2013)

Legend:
[1] = test system: fibromyalgia patients; assay: Case reports: fibromyalgia, drugs combined with MR treatment; type: in vivo, human
Description: In one example, a person experienced fibromyalgia for a number of years. The subject also experienced insomnia, restless legs, and chronic fatigue. The subject took the drug Naproxen (Aleve). The subject received seven consecutive days of 1 to 1.5 hour treatments.
Their primary complaint was back pain. […] The subject received thirteen treatments within a two-month period. […] Approximately two months after completing their first series of treatment, they began a second regimen of ten treatments within a two-month period.
In a further example, a person at least fifty years old suffered from fibromyalgia for a number of years. […] The subject received daily (when possible) treatments for approximately one year.

[2] = test system: patients with prostate problems, such as an enlarged prostate; assay: Case report: enlarged prostate drugs combined with MR treatment; type: in vivo, human; details: for PSA count, last measurement before MR treatment: person, enlarged prostate for fifteen years, taking the drugs; for PSA count after eighteen months of treatment / prostate size after eighteen months of treatment: same subject, three MR treatments per week
Description: In one example, a person had been diagnosed with an enlarged prostate for fifteen years and their PSA count was rising (the last measurement was 2.35). The subject was taking the drugs Avodart and Flomax. The subject began a series of three treatments per week for […], and continuing on an ongoing basis.
In providing MR treatment to a subject with prostate problems, an amplitude of about 0.01 μG to about 0.4 μG, with a frequency of about 0.2799 Hz to about 11.197 Hz may be used.

[3] = test system: osteoarthritis patients; details: person
Excerpt: In one example, a person suffered from back pain due to degenerative disk disease in their low back and sciatica. […] The subject was resonated approximately three times per week for more than one year.
In another example, a person experienced arthritis pain in a number of joints, including their hips, hands, and shoulders. The subject also suffered from sciatica in their hips and legs. The subject was taking Celebrex. The subject was resonated at least three times per week for one to two hours per session.
In a further example, a person experienced osteoarthritis pain and stiffness in their hands and finger joints. […] The subject was resonated twice for one-half hour per treatment. The subject was asked to rate their pain on a scale of zero (feels great) to ten (feels terrible) before and after treatment.
Alternatively, an amplitude of about 0.01 μG to about 0.46 μG, with a frequency of about 0.2799 Hz to about 12.8765 Hz may be used.

[4] = test system: migraine and headache patients; assay: Case reports: migraine and headache drugs combined with MR treatment; type: in vivo, human; details: for results on migraines / pain level before being resonated / reduction in pain level: person with migraines taking the drugs; for results on migraines: resonated ten times, 1 to 1.5 hours, over one month; for pain level before being resonated / pain level after treatment: scale of zero to ten; for reduction in pain level: two one-hour MR treatments three months apart; for pain level after treatment: same subject, after ten MR treatments over one month
Description: The subject was resonated ten times for 1 to 1.5 hours per treatment over a one-month period.
In another example, a person experienced pain associated with migraines. […] The subject received two one-hour treatments three months apart.
In a further example, a person experienced pain associated with severe headaches. The subject took Aspirin to treat the pain. The subject received one treatment for one hour.

[5] = same subject, thirteen MR treatments within a two-month period

`O=C1CN=C(c2ccccc2Cl)c2cc([N+](=O)[O-])ccc2N1` [Clonazepam] was tested. Which “pain level after treatment, first series” value [1, 5] did it give?
Its value is 0.5.

`CCOC(=O)N1CCC(=C2c3ccc(Cl)cc3CCc3cccnc32)CC1` [Claritin] was tested. Which “pain level after treatment, first series” value [1, 5] did it give?
The value was 0.5.

Which “pain level after treatment, first series” value [1, 5] does the source give for `COc1ccccc1OCC(O)COC(N)=O` (stereo not drawn) [Robaxin] here?
Its value is 0.5.

How did the “pain level after treatment, first series” value ([1]; in vivo) turn out when `CC(C)C[C@H](CN)CC(=O)O` [Lyrica] was run?
Its value is 0.5.

Which results are given for `CCOc1ccccc1OCCN[C@H](C)Cc1ccc(OC)c(S(N)(=O)=O)c1` [Flomax]?
PSA count, last measurement before MR treatment [2]: 2.35; PSA count after eighteen months of treatment [2]: 0.95; prostate size after eighteen months of treatment [2]: no longer enlarged

Which “pain level after treatment, first series” value [1, 5] does the source give for `CCN(CC)CC(=O)Nc1c(C)cccc1C` [lidoderm] here?
The value was 0.5.

Which “pain level before treatment” value ([1]; Person, fibromyalgia, took Naproxen (Aleve)) does the source give for `COc1ccc2cc([C@H](C)C(=O)O)ccc2c1` [Naproxen] here?
Its value is “six”.

What about the “initial pain levels before treatments” value ([1]; person, fibromyalgia, taking Naproxen (Aleve), depending on the area of the body) of the same molecule?
Its value is “three to seven”.

What about the pain after treatment ([1]; same subject, daily (when possible) MR treatments for approximately one year) of the same molecule?
The pain after treatment was “total elimination of pain”.

What about the “pain level after completing treatment” value ([1]; same subject, seven consecutive days of 1 to 1.5 hour MR treatments) of the same molecule?
The value was “zero to one”.

And the “results of continuing treatment” value ([3]; back pain (degenerative disk disease, sciatica), taking the drugs, resonated approx. three times per week for more than one year)?
Its value is “significantly less pain, an improved range of motion, and improved sleep”.

Which results are given for `NS(=O)(=O)c1cc2c(cc1Cl)NCNS2(=O)=O` [HCTZ]?
pre-treatment pain level, first series ([1]; person, fibromyalgia, back pain, on the listed drugs, before MR): 4; initial pain level, second series ([1]; same subject, approx. two months after first series, before second regimen): 4; pain level after treatment, first series [1, 5]: 0.5

With `CCC(=O)O[C@]1(C(=O)SCF)[C@H](C)C[C@H]2[C@@H]3C[C@H](F)C4=CC(=O)C=C[C@]4(C)[C@@]3(F)[C@@H](O)C[C@@]21C` [Flonase] as the molecule, how does the “pain level after treatment, first series” value [1, 5] read?
The value was 0.5.

Which results are given for `C[C@]12C=CC(=O)N[C@@H]1CC[C@@H]1[C@@H]2CC[C@]2(C)[C@@H](C(=O)Nc3cc(C(F)(F)F)ccc3C(F)(F)F)CC[C@@H]12` [Avodart]?
PSA count, last measurement before MR treatment [2]: 2.35; PSA count after eighteen months of treatment [2]: 0.95; prostate size after eighteen months of treatment [2]: no longer enlarged

With `Cc1ccc(-c2cc(C(F)(F)F)nn2-c2ccc(S(N)(=O)=O)cc2)cc1` [Celebrex] as the molecule, how does the results of treatment ([3]; arthritis pain and sciatica, taking Celebrex, resonated at least three times per week, one to two hours per session) read?
Its results of treatment is “a reduction in dosage and frequency of taking Celebrex, decreased pain, improved mobility, and improved sleep”.

For `CNS(=O)(=O)Cc1ccc2[nH]cc(CCN(C)C)c2c1` [Immitrex], which results on migraines [4] is on record?
The results on migraines was “decreased frequency and duration of migraines”.

What about the “pain level before being resonated” value [4] of the same molecule?
The value was “nine”.

And the “reduction in pain level” value [4]?
Its value is 50%.

And the “pain level after treatment” value [4]?
The value was “two”.

How did the “pain level after treatment, first series” value ([1]; in vivo) turn out when `CN1CC[C@]23c4c5ccc(O)c4O[C@H]2[C@@H](O)C=C[C@H]3[C@H]1C5` [Morphine] was run?
The value was 0.5.

How did the results on migraines [4] turn out when `CC1(C)O[C@@H]2[C@@H](CO[C@@]3(COS(N)(=O)=O)OC(C)(C)O[C@@H]23)O1` [Topomax] was run?
Its results on migraines is “decreased frequency and duration of migraines”.

And the “pain level before being resonated” value [4]?
Its value is “nine”.

What about the “reduction in pain level” value [4] of the same molecule?
Its value is 50%.

What about the “pain level after treatment” value [4] of the same molecule?
The value was “two”.
